Measurements taken from PubChem BioAssay (NCI).
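Five compound concentrations were applied to cells in 96-well plates for 48 hours; endpoints were derived by simple linear interpolation of the resulting dose-response curve. TGI: concentration producing complete growth inhibition.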

How the values were obtained:
Test in all cases: NCI tumour cell line growth inhibition, 48 h
[1] = test system: HOP-92 NSCLC
[2] = test system: MDA-MB-231 breast
[3] = test system: BT-549 breast
[4] = test system: SNB-75 CNS
[5] = test system: NCI-H23 lung
[6] = test system: SK-MEL-2 melanoma
[7] = test system: MCF7 breast
[8] = test system: SK-MEL-5 melanoma
[9] = test system: CAKI-1 renal
[10] = test system: OVCAR-8 ovarian
[11] = test system: SK-OV-3 ovarian
[12] = test system: SW-620 colon
[13] = test system: NCI/ADR-RES ovarian
[14] = test system: SNB-19 CNS

| Structure (SMILES) | TGI [1] [µM] | TGI [2] [µM] | TGI [3] [µM] | TGI [4] [µM] | TGI [5] [µM] | TGI [6] [µM] | TGI [7] [µM] | TGI [8] [µM] | TGI [9] [µM] | TGI [10] [µM] | TGI [11] [µM] | TGI [12] [µM] | TGI [13] [µM] | TGI [14] [µM] |
| --- | --- | --- | --- | --- | --- | --- | --- | --- | --- | --- | --- | --- | --- | --- |
| COc1cc(Cc2cnc(N)nc2N)cc(OC)c1OCCCNc1ccc([N+](=O)[O-])cc1 | 36.4 | 27.5 | 31.1 | 32.7 | 31.8 | 29.5 | 26.5 | 18.9 | > 100 | 30.1 | 66.6 | 34.2 | 60 | 27 |
| COC(=O)C1=C(O)CCCC(C2CCCCC(=O)C2C(=O)OC)=C1 (stereo unspecified) | > 100 | > 100 | > 100 | > 100 | > 100 | > 100 | 70.4 | > 100 | > 100 | > 100 | > 100 | > 100 | > 100 | > 100 |
| CN1CCc2c(sc3ncn(Nc4ccc(Cl)cc4)c(=N)c23)C1 | > 100 | > 100 | > 100 | > 100 | > 100 | > 100 | > 100 | > 100 | > 100 | > 100 | > 100 | > 100 | > 100 | > 100 |
| COc1ccc(-c2ncn(C[Si](C)(C)C)c2-c2ccc(OC)cc2)cc1 | 17.5 | 27.6 | 72.3 | 28.3 | 18.5 | 20.5 | 31.1 | 10.2 | 21.9 | 31.4 | 36.9 | 17 | 29.1 | 26.2 |
| N/C(=N\Nc1ccc(Cl)cc1)c1cnccn1 | > 100 | > 100 | > 100 | > 100 | > 100 | > 100 | > 100 | 54.6 | > 100 | > 100 | > 100 | > 100 | > 100 | > 100 |
| O=C(C/C(=N/O)C(F)(F)F)c1cccs1 | > 100 | > 100 | > 100 | > 100 | > 100 | > 100 | > 100 | > 100 | > 100 | > 100 | > 100 | > 100 | > 100 | > 100 |
| CCCCCCCCCCCCCCCCCCNC(=S)/N=C/c1c(O)c2ccccc2[nH]c1=O | 32.7 | 30.3 | 38 | 28 | 37.5 | 52.2 | 48.3 | 70.7 | 31.6 | 29.6 | 49.1 | 42.4 | 35.1 | 36.3 |
| CCCCCCCCP(=O)(O)OP(=O)(O)OCC1OC(n2ccc(N)nc2=O)C(O)C1O (stereo unspecified) | > 100 | > 100 | > 100 | > 100 | > 100 | > 100 | > 100 | > 100 | > 100 | > 100 | > 100 | > 100 | > 100 | > 100 |
| COC(=O)c1c(C)cccc1C1CN=NC12Cc1cc(C)cc(C)c1C2=O (stereo unspecified) | 64.2 | 98.2 | > 100 | 99.3 | 78.4 | > 100 | 29.1 | 44.6 | > 100 | > 100 | > 100 | > 100 | > 100 | > 100 |
| CCCCc1ccc(Nc2nc(Cl)c3ccn(C4CC(Oc5ccc(C)cc5)C(COc5ccc(C)cc5)O4)c3n2)cc1 (stereo unspecified) | > 46.4 | > 46.4 | 17.3 | > 100 | 30.8 | > 46.4 | > 46.4 | > 46.4 | > 46.4 | > 46.4 | > 46.4 | > 46.4 | > 46.4 | 31.8 |
| Cc1c(C)c(C)c(-n2c(=O)n(C)c(=O)n2-c2cc(C(C)(C)C)cc(C(C)(C)C)c2O)c(C)c1C | 17.6 | 17 | 28.1 | 16.9 | 24 | 20.3 | 16.6 | 18.5 | 28.5 | 22.7 | 25.2 | 28.4 | 23.4 | 20.9 |
| COc1ccc(NC(C(N)=O)c2cc3cc(Br)ccc3nc2Cl)cc1 (stereo unspecified) | 99.7 | > 100 | > 100 | > 100 | > 100 | > 100 | > 100 | > 100 | > 100 | > 100 | > 100 | > 100 | > 100 | > 100 |
| Cc1[nH]c2ccccc2c1/C=N/NC(=O)c1cccc(I)c1 | 51.4 | 57.7 | 61.5 | 54.5 | 53.5 | 39.2 | 61.7 | 29.1 | 50.4 | > 100 | 93.5 | > 100 | 56 | > 100 |
| COC(=O)[C@]1(c2cc3ccccc3[nH]2)CC2CN(C(=O)OCc3ccccc3)C1CC2=O (stereo partly specified) | 87.8 | 32.4 | 95.5 | 64.6 | > 100 | 38.2 | 35.5 | 34.5 | > 100 | > 100 | > 100 | > 100 | > 100 | > 100 |
| CCOC(=O)/C=C(\C(=O)OCC)n1cc(Cl)c(=O)n(CC(=O)OCC)c1=O | 5.28 | 30.3 | 35.5 | 35.9 | 42.6 | 32 | 8.07 | 29.1 | 5.27 | 8.59 | 33.9 | 4.54 | > 93.8 | 39 |
| C=CC(=O)N1C/C(=C\c2ccc([N+](=O)[O-])cc2)C(=O)/C(=C/c2ccc([N+](=O)[O-])cc2)C1 | 2.98 | 0.278 | 0.567 | 1.16 | 0.791 | 1.8 | 1.21 | 2.54 | 0.801 | 0.727 | 2.85 | 1.96 | 4.12 | 3.08 |
| O=[N+]([O-])c1cc2ccc(N(CCO)CCO)nc2nc1N(CCO)CCO | > 100 | > 100 | > 100 | > 100 | > 100 | > 100 | > 100 | > 100 | > 100 | > 100 | > 100 | > 100 | > 100 | > 100 |
| Nn1c(=O)[nH]c2ncn(Cc3ccccc3)c2c1=O | > 100 | > 100 | > 100 | > 100 | > 100 | > 100 | > 100 | > 100 | > 100 | > 100 | > 100 | > 100 | > 100 | > 100 |
| CC1SC2(CCCCC2)N(NC(=O)CSc2nc3ccc(Cl)cc3c(=O)n2-c2ccccc2)C1=O (stereo unspecified) | 52.5 | 35 | 36.4 | 50.4 | 57.4 | 31.8 | 32.2 | 27.9 | > 100 | 59.1 | > 100 | 75.2 | 50.2 | 66.9 |
